Ten compounds from patent US10323018B2 (Millennium Pharmaceuticals, Inc., priority 2015, dated 2019) can be followed below.

Where only a bound is given, the exact number is not on record here.

One assay has as its target hNAMPT protein (Homo sapiens (Human), UniProt P43490). Kind of assay: NAMPT enzyme assay (TR-FRET/HTRF with BodiPY ligand). It is filed as binding. The settings on record: for inhibition at 1 µM: NAMPT inhibition at compound concentration 1 μM, read-out: Percent Inhibition; for IC50: NAMPT inhibition, IC50 range class. An outline of the steps:
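His-tagged hNAMPT with anti-6His-Tb, incubated with compound and BodiPY ligand for 1 h at rt in the dark, in Tris-HCl pH 7.5 buffer with DTT, NaCl, MgCl2 and Tween 20. TR-FRET measured with 320 nm excitation as the 520/486 nm emission ratio. IC50 fitted relative to DMSO controls.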

Another assay relates to PC3 cells. The assay can be described thus: PC3 growth inhibition (Cell-titer glo, 72 hours). In kind it is cell-based. To be noted: Homo sapiens, PC-3, 72 h, read-out: Percent Viability, PC3 cells, compound concentration 1.667 μM, 72 hours. An outline of the steps:
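PC3 cells grown in RPMI1640 plated at 8×10^4 cells/ml, incubated overnight, then exposed to compound diluted in AIM serum-free medium for 72 h at 37 °C, 5% CO2. Luminescence by CellTiter-Glo relative to DMSO controls; % viability at single concentration, GI50 or LD50 from concentration-response curves.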

Sequence of hNAMPT protein (P43490 whole entry): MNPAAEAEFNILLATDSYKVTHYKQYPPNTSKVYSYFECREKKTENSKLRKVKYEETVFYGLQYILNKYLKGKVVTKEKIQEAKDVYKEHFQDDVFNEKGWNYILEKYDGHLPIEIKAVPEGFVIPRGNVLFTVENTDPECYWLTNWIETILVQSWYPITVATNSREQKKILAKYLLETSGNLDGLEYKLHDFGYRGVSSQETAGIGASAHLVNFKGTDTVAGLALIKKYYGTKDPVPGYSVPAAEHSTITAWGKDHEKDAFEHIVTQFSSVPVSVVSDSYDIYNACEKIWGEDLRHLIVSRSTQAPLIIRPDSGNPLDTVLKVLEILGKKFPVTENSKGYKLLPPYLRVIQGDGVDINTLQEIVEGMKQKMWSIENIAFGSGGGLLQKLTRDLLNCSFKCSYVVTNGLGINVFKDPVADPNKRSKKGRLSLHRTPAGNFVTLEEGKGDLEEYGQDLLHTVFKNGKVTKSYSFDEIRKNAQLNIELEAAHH

`COc1cc(-c2nc(-c3ccc(F)cc3)nc3cc(C(=O)NCCCc4ncc[nH]4)ccc23)ccn1` [Compound I-196, 2-(4-fluorophenyl)-N-[3-(1H-imidazol-2-yl)propyl]-4-(2-methoxypyridin-4-yl)quinazoline-7-carboxamide]: on hNAMPT protein, the inhibition at 1 µM was 100% and the IC50 was below 0.01 µM. In addition, the viability at 1.667 µM in the assay on PC3 cells came out at 1%.

Turning to `CCCc1nc(-c2ccc(Cl)cc2)nc2cc(C(=O)NCCCc3ncc[nH]3)ccc12` [Compound I-4, 2-(4-chlorophenyl)-N-[3-(1H-imidazol-2-yl)propyl]-4-propylquinazoline-7-carboxamide], at hNAMPT protein, the inhibition at 1 µM worked out at 99% and the IC50 was below 0.01 µM. In addition, in the assay on PC3 cells, the viability at 1.667 µM came to 1%.

Turning to `CCOc1cc(-c2ccc(F)cc2OC)nc2cc(C(=O)NCCCc3cc[nH]n3)ccc12` [Compound I-128, 4-ethoxy-2-(4-fluoro-2-methoxyphenyl)-N-[3-(1H-pyrazol-3-yl)propyl]quinoline-7-carboxamide], at hNAMPT protein, the inhibition at 1 µM worked out at 96% and the IC50 is 0.01 to 0.05 µM. Moreover, the viability at 1.667 µM with PC3 cells was determined as 2%.

Consider `CCOc1cc(-c2ccc(F)cc2)nc2cc(C(=O)NCCc3cc(N)[nH]n3)ccc12` [Compound I-134, N-[2-(5-amino-1H-pyrazol-3-yl)ethyl]-4-ethoxy-2-(4-fluorophenyl)quinoline-7-carboxamide], for which, on hNAMPT protein, the inhibition at 1 µM worked out at 93% and the concentration for half-maximal inhibition (IC50) lay within 0.01 to 0.05 µM. The viability at 1.667 µM with PC3 cells was 3%.

For `COCCOc1cc(-c2ccc(F)cc2)nc2cc(C(=O)NCCCc3ncc[nH]3)ccc12` [Compound I-156, 2-(4-fluorophenyl)-N-[3-(1H-imidazol-2-yl)propyl]-4-(2-methoxyethoxy)quinoline-7-carboxamide], at hNAMPT protein, the inhibition at 1 µM came out at 100% and the IC50 is below 0.01 µM. The viability at 1.667 µM with PC3 cells came out at 2%.

For `CCOc1cc(-c2ccc(F)cc2)nc2cc(C(=O)NCc3nc4cnccc4[nH]3)ccc12` [Compound I-14, 4-ethoxy-2-(4-fluorophenyl)-N-(1H-imidazo[4,5-c]pyridin-2-ylmethyl)quinoline-7-carboxamide], at hNAMPT protein, the inhibition at 1 µM is above 99% and the IC50 was below 0.01 µM. Besides, in the assay with PC3 cells, the viability at 1.667 µM stood at 1%.

For the compound `CCOc1cc(-c2cccnc2OC)nc2cc(C(=O)NCCCc3cnn[nH]3)ccc12` [Compound I-105, 4-ethoxy-2-(2-methoxypyridin-3-yl)-N-[3-(1H-1,2,3-triazol-5-yl)propyl]quinoline-7-carboxamide], on hNAMPT protein, the inhibition at 1 µM came to 100% and the IC50 is 0.01 to 0.05 µM. For the same compound, in the assay with PC3 cells, the viability at 1.667 µM was 2%.

On to `CCOc1cc(-c2ccc(F)cc2)nc2cc(C(=O)NCc3nc4cnccc4n3C)ccc12` [Compound I-178, 4-ethoxy-2-(4-fluorophenyl)-N-[(1-methyl-1H-imidazo[4,5-c]pyridin-2-yl)methyl]quinoline-7-carboxamide], for which, at hNAMPT protein, the inhibition at 1 µM was 99% and the IC50 was below 0.01 µM. Moreover, the viability at 1.667 µM with PC3 cells worked out at 2%.

On to `CCOc1cc(-c2ccc(=O)n(C)c2)nc2cc(C(=O)NCCCc3nnc[nH]3)ccc12` [Compound I-122, 4-ethoxy-2-(1-methyl-6-oxo-1,6-dihydropyridin-3-yl)-N-[3-(4H-1,2,4-triazol-3-yl)propyl]quinoline-7-carboxamide], for which, on hNAMPT protein, the inhibition at 1 µM is above 99% and the IC50 is 0.01 to 0.05 µM. The viability at 1.667 µM in the assay with PC3 cells came out at 2%.

Turning to `CCCc1nc(-c2ccc(Cl)cc2)nc2cc(C(=O)NCc3nc4ccncc4[nH]3)ccc12` [Compound I-9, 2-(4-chlorophenyl)-N-(3H-imidazo[4,5-c]pyridin-2-ylmethyl)-4-propylquinazoline-7-carboxamide], at hNAMPT protein, the inhibition at 1 µM was found to be 93% and the IC50 is below 0.01 µM. In addition, the viability at 1.667 µM with PC3 cells is 1%.
